Reference: article PMC10202811 (Nature Medicine, 2023)
Where “and” joins values, the source holds several entries; their conditions need not be identical. Equal values may be shown once.

Test system: ALK-driven refractory or relapsed neuroblastoma
Experiment: Functional imaging response: MIBG Curie score / FDG-PET avidity
Format: in vivo, human
Set-up: key to Symbol to indicate Soft tissue became MIBG non-avid: *: Symbol to indicate Soft tissue became MIBG non-avid
Details: for complete resolution of MIBG avidity (CR) in bone and/or soft tissue: patients with BOR of SD/MR/PR
Excerpt: Patients underwent disease staging at baseline, after courses 2 and 4 and then every four courses thereafter. The primary endpoint for response analysis is the BOR, defined as the best response observed before progression or start of another therapy. […] Response was graded according to the NANT response criteria version 2.0 (ref. [26]), modified from the International Neuroblastoma Response Criteria (INRC)[48]. NANT response criteria use three components for assessment of overall response: soft tissue response assessed by anatomical imaging and avidity on MIBG or FDG-PET; bone response assessed by uptake in bone by MIBG or bone involvement on FDG-PET; and bone marrow response assessed by morphology on bilateral aspirates and biopsies. Each response component (soft tissue, bone and bone marrow) are graded as CR, PR, SD and PD. Overall response grading is defined as: CR, if a response of CR in all components that are involved at baseline; PR, if a response of PR or better in all involved components; MR, if a response of PR or better but with at least one involved component as SD and no PD in all involved components; SD, if a response of SD in all involved components; and PD, if a response of PD in at least one involved component. The overall response definitions are identical to overall responses (CR, PR, SD and PD) as defined by the INRC. Response assessment is initially performed by sites and reviewed against source documents by NANT operations. Additional blinded central review of all radiological or pathological data was conducted for patients with overall PR or better and, in addition, radiologic pathological data of all involved sites for patients with MR to assign the final BOR on this study. Response by MIBG was determined using the Curie criteria. RR was determined as the proportion of patients with BOR of CR and PR in each cohort. Based on an international consensus by the National Cancer Institute Clinical Trials Planning Committee to refine tumor site eligibility criteria and evaluation of disease response for early-phase clinical trials in children with high-risk recurrent, refractory and progressive neuroblastoma, we also performed an ad hoc analysis to determine a modified RR that includes the proportion of patients with BOR of CR, PR and MR.

C[C@H]1Oc2cc(cnc2N)-c2c(nn(C)c2C#N)CN(C)C(=O)c2ccc(F)cc21 [Lorlatinib, (10R)-7-amino-12-fluoro-2,10,16-trimethyl-15-oxo-10,15,16,17-tetrahydro-2H-8,4-(metheno)pyrazolo[4,3-h][2,5,11]-benzoxadiazacyclotetradecine-3-carbonitrile]
responders achieving MIBG complete responses (13 of 27 responders, all cohorts): 48% | MIBG Curie Score % change from baseline (Cohort A1, individual patient): -87% and -94% and -100% and 600% and 50% and 40% and 33% and -10% and -18% and -70% | Symbol to indicate Soft tissue became MIBG non-avid (Cohort A1, individual patient): * | MIBG Curie Score % change from baseline (Cohort A2, individual patient): -4.76% and -25% and -44% and -56% and -67% and -95% and -100% | Symbol to indicate Soft tissue became MIBG non-avid (Cohort A2, individual patient): * | MIBG Curie Score % change from baseline (Cohort B2, individual patient): 100% and 56% and 1% and -33% and -73% and -75% and -100% | Symbol to indicate Soft tissue became MIBG non-avid (Cohort B2, individual patient): * | Curie Score Percent Change (Patient ID 2): -100 | Minimum Curie (Patient ID 2, Enrollment Curie 5): 0 | Curie Score Percent Change (Patient ID 3): -94.44 | Minimum Curie (Patient ID 3, Enrollment Curie 18): 1 | Curie Score Percent Change (Patient ID 9): -10 | Minimum Curie (Patient ID 9, Enrollment Curie 10): 9 | Curie Score Percent Change (Patient ID 10): 50 | Minimum Curie (Patient ID 10, Enrollment Curie 4): 6 | Curie Score Percent Change (Patient ID 11): -100 | Minimum Curie (Patient ID 11, Enrollment Curie 1): 0 | Curie Score Percent Change (Patient ID 12): 33.33 | Minimum Curie (Patient ID 12, Enrollment Curie 6): 8 | Curie Score Percent Change (Patient ID 17): -86.66 | Minimum Curie (Patient ID 17, Enrollment Curie 15): 2 | Curie Score Percent Change (Patient ID 21): -100 | Minimum Curie (Patient ID 21, Enrollment Curie 3): 0 | Curie Score Percent Change (Patient ID 25): -100 | Minimum Curie (Patient ID 25, Enrollment Curie 2): 0 | Curie Score Percent Change (Patient ID 26): -18.18 | Minimum Curie (Patient ID 26, Enrollment Curie 11): 9 | Curie Score Percent Change (Patient ID 30): 40 | Minimum Curie (Patient ID 30, Enrollment Curie 5): 7 | Curie Score Percent Change (Patient ID 31): -100 | Minimum Curie (Patient ID 31, Enrollment Curie 3): 0 | Curie Score Percent Change (Patient ID 32): 600 | Minimum Curie (Patient ID 32, Enrollment Curie 2): 14 | Curie Score Percent Change (Patient ID 38): -100 | Minimum Curie (Patient ID 38, Enrollment Curie 3): 0 | Curie Score Percent Change (Patient ID 40): -70 | Minimum Curie (Patient ID 40, Enrollment Curie 10): 3 | complete resolution of MIBG avidity (CR) in bone and/or soft tissue (A1, five of eight): 63% | complete resolution of MIBG avidity (CR) in bone and/or soft tissue (A2, three of ten): 30% | complete resolution of MIBG avidity (CR) in bone and/or soft tissue (B2, one of four): 25% | complete resolution of metabolic activity in soft tissue lesions by MIBG/FDG-PET (ten of 22 patients with avid soft tissue lesions and BOR of SD/MR/PR): 45%
